Laboratory results as given in patent US12590111B2, “Flavonoid derivative for treating dental caries” (Mühlbauer Technology GmbH, priority 2019, dated 2026).

Assays:
[1] = Solubility in the GtfC reaction mixture; assay type: physicochemical; conditions: 6 mM; final DMSO/ethanol 2/8%
Procedure: (§1) For this purpose, the test substance was resuspended in a DMSO/ethanol mixture (20/80%) and then diluted in the reaction mixture to the concentration to be tested (final concentration DMSO/ethanol 2/8%). The glucosyltransferase GtfC (0.3 μg, nzytech) was incubated in 100 mM potassium phosphate buffer, pH 6.0 with 30 mM sucrose for one hour at 37° C. in the presence of the test substances. As a positive control, the enzyme activity was measured in the presence of DMSO/ethanol (2/8%). […] For this purpose, the D-fructose and D-glucose assay kit from Megazyme (K-FRUGL) was used.
(§2) 9 independent reaction batches were measured in triplicate and the enzyme activity was normalized to the solvent control.

[2] = target: T1, glucosyltransferase C of S. mutans (Streptococcus mutans serotype c, UniProt P13470); assay: Inhibition of glucosyltransferase GtfC activity (fructose release, K-FRUGL kit); assay type: biochemical; conditions: for inhibition of glucosyltransferase C activity: 30 mM sucrose, pH 6.0, 1 h, 37° C.; for remaining enzyme activity: normalized to solvent control, FIG. 2
T1 construct: purchased nzytech
T1 sequence (P13470 35-1455): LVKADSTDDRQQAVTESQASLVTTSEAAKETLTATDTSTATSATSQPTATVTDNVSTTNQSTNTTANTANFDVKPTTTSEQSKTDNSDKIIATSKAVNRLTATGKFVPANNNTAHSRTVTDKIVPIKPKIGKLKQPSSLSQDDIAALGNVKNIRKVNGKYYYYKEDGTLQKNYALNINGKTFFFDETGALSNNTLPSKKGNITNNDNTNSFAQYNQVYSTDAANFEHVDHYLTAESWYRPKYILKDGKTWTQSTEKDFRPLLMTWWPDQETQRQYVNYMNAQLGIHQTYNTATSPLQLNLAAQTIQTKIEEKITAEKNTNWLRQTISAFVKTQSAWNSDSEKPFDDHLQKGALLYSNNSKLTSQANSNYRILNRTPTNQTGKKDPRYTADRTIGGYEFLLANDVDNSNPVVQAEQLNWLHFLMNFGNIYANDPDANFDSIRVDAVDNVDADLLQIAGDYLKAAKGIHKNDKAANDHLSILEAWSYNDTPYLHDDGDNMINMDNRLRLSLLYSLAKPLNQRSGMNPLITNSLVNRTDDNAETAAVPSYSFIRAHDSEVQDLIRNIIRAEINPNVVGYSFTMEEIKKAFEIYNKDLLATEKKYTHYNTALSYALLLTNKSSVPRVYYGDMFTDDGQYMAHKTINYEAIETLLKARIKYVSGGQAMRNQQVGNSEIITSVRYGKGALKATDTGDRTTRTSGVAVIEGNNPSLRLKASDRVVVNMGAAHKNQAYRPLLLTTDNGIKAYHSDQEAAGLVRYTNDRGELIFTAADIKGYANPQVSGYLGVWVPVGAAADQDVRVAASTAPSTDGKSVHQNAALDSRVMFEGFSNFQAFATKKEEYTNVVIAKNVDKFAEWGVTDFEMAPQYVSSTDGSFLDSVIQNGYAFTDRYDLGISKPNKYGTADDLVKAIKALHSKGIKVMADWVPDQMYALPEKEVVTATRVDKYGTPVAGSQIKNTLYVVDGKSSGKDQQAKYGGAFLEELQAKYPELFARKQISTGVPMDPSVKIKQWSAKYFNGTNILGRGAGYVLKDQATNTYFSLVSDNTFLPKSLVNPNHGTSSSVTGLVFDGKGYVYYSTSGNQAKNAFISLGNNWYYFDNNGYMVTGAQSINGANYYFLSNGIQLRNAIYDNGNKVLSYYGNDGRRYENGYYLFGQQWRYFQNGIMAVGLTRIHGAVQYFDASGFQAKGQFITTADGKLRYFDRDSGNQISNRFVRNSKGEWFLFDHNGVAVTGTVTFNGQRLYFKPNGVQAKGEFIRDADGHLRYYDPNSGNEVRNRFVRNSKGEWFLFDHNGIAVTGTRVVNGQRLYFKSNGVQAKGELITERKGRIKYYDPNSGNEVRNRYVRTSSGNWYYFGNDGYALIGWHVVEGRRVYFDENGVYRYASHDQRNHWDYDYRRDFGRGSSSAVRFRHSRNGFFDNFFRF
Procedure: as §1
D-glucose and D-fructose are phosphorylated in the presence of adenosine-5-triphosphate (ATP) to glucose-6-phosphate (G-6-P) and fructose-6-phosphate (F-6-P) by the enzyme hexokinase (HK), producing adenosine 5′-diphosphate (ADP) (1), (2).
In the presence of the enzyme glucose-6-phosphate dehydrogenase (G6P-DH), G-6-P is oxidized to gluconate-6-phosphate by nicotinamide adenine dinucleotide (NADP^+). This produces reduced nicotinamide adenine dinucleotide phosphate (NADPH) (3).
The amount of NADPH formed in this reaction corresponds stoichiometrically to the amount of D-glucose. The absorption of NADPH is measured at 340 nm.
After completion of the reaction (3), F-6-P is converted to G-6-P by phosphoglucose isomerase (PGI) (4).
The G-6-P formed reacts in turn with NADP^+ to form gluconate-6-phosphate and NADPH, which leads to a further increase in absorption and correlates stoichiometrically with the amount of D-fructose.
as §2

S. mutans biofilm = S. mutans biofilm formation on saliva-coated hydroxyapatite disks (crystal violet); assay type: cell-based; conditions: HAP disks pretreated with 60 μl 10 mM, 60 min; 24 h culture at 37° C.; relative to solvent control
Procedure: In this example, it was investigated whether “ApibisPhos UD” has a significant influence on S. mutans-mediated biofilm formation using hydroxyapatite discs coated with saliva under conditions simulating the oral cavity.
For this purpose, sterile hydroxyapatite disks (Clarkson Chromatography Products Inc., Ø5 mm×2 mm) were coated with saliva (Lee Biosolutions, human pooled donors) as substrate for 60 minutes and then incubated with ApiBisPhos UD (60 μl; 10 mM in DMSO/ethanol mixture, 20/80%) for 60 minutes. After washing twice with DPBS, these pretreated hydroxyapatite disks were coated with S. mutans preculture (1.5×10^8 bacteria per ml in Balmelli broth) and cultured aerobically at 37° C. for 24 hours. The grown biofilm was fixed with 100% ethanol (30 min, 25° C.), stained with 0.06% (w/v) crystal violet (60 min, 25° C.) and the dye eluted with 30% (v/v) acetic acid quantified by measuring the absorbance at 570 nm. The measured values were set in relation to the solvent control (DMSO/ethanol mixture; 20/80%), i.e. without the use of ApibisPhos UD.

[3] = target: T2, GtfC enzyme activity of S. mutans (Streptococcus mutans serotype c, UniProt P13470); assay: GtfC activity with flavonoid derivative bound to hydroxyapatite; assay type: biochemical; conditions: bound to HAP as in Example 4; activity in supernatant; FIG. 4
T2 construct: purchased nzytech
T2 sequence (P13470 35-1455): as above
Procedure: ApiBisPhos UD was bound to HAP as described in Example 4 and then incubated with GtfC as described in Example 3. The HAP was then centrifuged off and the GtfC activity in the supernatant was then determined as described in Example 3. A similar procedure was followed with the further flavonoid derivative “ApiBisPhos EG” according to the invention. […] In other words, the further example of a flavonoid derivative according to the invention (“ApiBisPhos EG”) confirms the successful functioning of the present invention as the basis for achieving the advantage according to the invention based on the adhesion of the flavonoid derivative according to the invention to the tooth surface comprising hydroxyapatite, so that the flavonoid derivative can prevent or to a great extent inhibit the formation of biofilm causing dental diseases on the tooth surfaces treated with the flavonoid derivative in the long term.

[4] = pH 6, read-out: inhibition of glucosyltransferase C activity

Molecule	solubility [1]	inhibition at 1000 µM [2, 4]	inhibition at 3000 µM [2, 4]	inhibition of biofilm formation on HAP surfaces (S. mutans biofilm)	inhibition of GtfC enzyme activity by substance bound to hydroxyapatite [3]	inhibition of glucosyltransferase C activity ([2]; 1 mM)	remaining enzyme activity ([2]; 1 mM)	inhibition of glucosyltransferase C activity ([2]; 3 mM)	remaining enzyme activity ([2]; 3 mM)	inhibition of glucosyltransferase C activity ([2]; 6 mM)
O=c1cc(-c2ccc(O)cc2)oc2cc(O)cc(O)c12 [apigenin, reference compound]	insufficient solubility	38 ± 10%	53 ± 6%							
Mixture of 4′-(11,11-bisphosphonoundecanoxy)-7,5-dihydroxyflavone and 7-(11,11-bisphosphonoundecanoxy)-4′, 5-dihydroxyflavone [ApiBisPhos UD]				26±9%	inhibit the GtfC enzyme activity of S. mutans to a considerable degree	72±9%	less than 30%	90±4%	about 10%	99±2%
Mixture of 4′-(12,12-bisphosphono-3,6,9-trioxadodecanoxy)-7,5-dihydroxyflavone and 7-(12,12-bisphosphono-3,6,9-trioxadodecanoxy)-4′,5-dihydroxyflavone [ApiBisPhos EG]					inhibit the GtfC enzyme activity of S. mutans to a considerable degree					
